Experimental data reported in patent US11000601B2, “Conjugated biological molecules, pharmaceutical compositions and methods” (OBI Pharma, Inc., priority 2016, dated 2021).
Values joined by “and” are separate entries in the source; they are usually repeats but may differ in a detail not shown here. Equal entries are not always repeated. Marks after values point to notes of the source that are not given here. Square brackets hold non-standard residues; d marks the D form. Peptide text beside a SMILES is read from it. * marks the point of attachment. Dolaproine = CO[C@@H]([C@@H]1CCCN1)[C@@H](C)C(=O)O; Dil = CC[C@H](C)[C@H](NC)[C@@H](CC(=O)O)OC; X1 = C[C@@H](N*)[C@@H](O)c1ccccc1; NMeV = CN[C@H](C(=O)O)C(C)C

Columns and labels:
[1] = Body weight, mortality and signs of overt toxicity in MCF-7 implanted female nude (nu/nu) mice; type: in vivo, mouse; details: for Body Weight (g), individual animals No. 1-6: single animal; for Body Weight (g), individual mice: individual mice No. 1-6
Protocol: In a xenograft tumor model of human breast adenocarcinoma, MCF-7 (ATCC HTB-22) cells were subcutaneously (SC) implanted (2.0×10^7 cells in 1:1 matrigel/media mixture at 0.2 mL/mouse) into the right flank of female athymic (nu/nu) nude mice. Supplemental injections of estradiol cyclopentyl propionate (100 μg/mouse) were administered subcutaneously between the scapulae twice weekly, from one week prior to cell implantation to study completion. Tumor-implanted mice were divided into eleven treatment groups, each group containing six animals, and test agent administrations were initiated one day after cell implantation (denoted as Day 1). 3.1 Test Substances and Dosing Pattern
Two control groups received intravenous injections of vehicle (25 mM Sodium Citrate, pH 6.5+100 mM NaCl) once weekly for either six weeks (group 1) or two weeks (group 2).
Female (nu/nu) nude mice aged 6-7 weeks obtained from BioLasco Taiwan (under Charles River Laboratories Licensee) were used. The animals were housed in individually ventilated cages (IVG, 36 Mini Isolator System). The allocation for 3-5 animals was 27×20×14 in cm. All animals were maintained in a hygienic environment under controlled temperature (20-24° C.) and humidity (30-70%) with 12-hour light/dark cycle. Free access to standard lab diet (Oriental Yeast Co., Ltd., Japan) and autoclaved tap water were granted. All aspects of this work including housing, experimentation, and animal disposal were performed in general accordance with the “Guide for the Care and Use of Laboratory Animals: Eighth Edition” (National Academies Press, Washington, D.C., 2011) in our AAALAC-accredited laboratory animal facility. In addition, the animal care and use protocol was reviewed and approved by the IACUC at Eurofins Panlabs Taiwan, Ltd.
The tumor volumes, body weights, mortality, and signs of overt toxicity were monitored and recorded twice weekly for 77 days. Tumor volume (mm^3) was calculated according to the formula for a prolate ellipsoid: length (mm)×[width (mm)]^2×0.5. Tumor growth inhibition was calculated as T/C (treatment/control)×100%. A T/C value≤42% was considered significant anti-tumor activity. Two-way ANOVA followed by Bonferroni test was used to ascertain the statistical significance of groups compared to respective vehicle control (*p<0.05).

[2] = system: NCI-H526 (ATCC CRL-5811) variant small cell lung cancer cells; test: Xenograft tumor model of human small cell lung cancer NCI-H526 in female nu/nu mice: tumor volume, T/C, TGI; type: in vivo; details: for Tumor Volume (mm^3), individual animal: animals No. 1-8; for Tumor Volume (mm^3), individual animal / Tumor Volume (mm^3), Mean: once weekly x 4 (10 mg/kg IV; MMAE 0.191 mg/kg IP); for Tumor Volume (mm^3), Mean: group mean; for % T/C: treatment/control x 100%, <=42% considered significant; for % TGI: vs vehicle control
Protocol: In a xenograft tumor model of human small cell lung cancer, viable NCI-H526 stage E carcinoma; variant small cell lung cancer cells (ATCC CRL-5811), were subcutaneously (SC) implanted (1×10^6 cells with matrigel (1:0.8) in 0.2 mL/mouse) into the right flank of female nu/nu mice. Tumor implanted mice were divided into five treatment groups, each group containing eight animals, and test agent administrations were initiated one day after cell implantation (denoted as Day 1).
The NCI-H526 tumor cell line was purchased from American Type Culture Collection (ATCC CRL-5811, variant small cell lung carcinoma) and cultured in Eurofins Panlabs Taiwan, Ltd. The cells were cultured in RPMI-1640 medium containing 10% fetal bovine serum (FBS) at 37° C. in 5% CO2 incubator and implanted subcutaneously in the right flank of each mouse.
Female nu/nu nude, aged 6-7 weeks, were obtained from BioLasco Taiwan (under Charles River Laboratories Licensee) and used. The animals were housed in individually ventilated cages (IVC, 36 Mini Isolator system). The allocation for 5 animals was 27×20×14 in cm. All animals were maintained in a hygienic environment under controlled temperature (20-24° C.) and humidity (30-70%) with 12-hour light/dark cycle. Free access to standard lab diet [MFG (Oriental Yeast Co., Ltd., Japan)] and autoclaved tap water were granted. All aspects of this work including housing, experimentation, and animal disposal were performed in general accordance with the “Guide for the Care and Use of Laboratory Animals: Eighth Edition” (National Academies Press, Washington, D.C., 2011) in our AAALAC-accredited laboratory animal facility. In addition, the animal care and use protocol was reviewed and approved by the IACUC at Eurofins Panlabs Taiwan, Ltd.
The tumor volumes, body weights, mortality, and signs of overt toxicity were monitored and recorded twice weekly for 45 days. Tumor growth inhibition was calculated as T/C (treatment/control)×100%. A T/C value≤42% compared to that of the vehicle control group was considered significant anti-tumor activity. Two-way ANOVA followed by Bonferroni test was used to ascertain the statistically significant significance of groups compared to respective vehicle control (*p<0.05).

Compound: CC[C@H](C)[C@@H]([C@@H](CC(=O)N1CCC[C@H]1[C@H](OC)[C@@H](C)C(=O)N[C@H](C)[C@@H](O)c1ccccc1)OC)N(C)C(=O)[C@@H](NC(=O)[C@@H](NC)C(C)C)C(C)C [MMAE, monomethyl auristatin E] (H-[NMeV]V[Dil][Dolaproine]-X1)
- Body Weight (g), individual animals No. 1-6 ([1]; 0.057 mg/kg × 6, IV once weekly, Day 53): 26 g (3×) and 28 g and 22 g and 24 g
- Body Weight (g), individual animals No. 1-6 ([1]; 0.057 mg/kg × 6, IV once weekly, Day 56): 24 g and 27 g and 26 g (2×) and 23 g and 25 g
- Body Weight (g), individual animals No. 1-6 ([1]; 0.057 mg/kg × 6, IV once weekly, Day 60): 27 g (3×) and 28 g and 24 g and 26 g
- Body Weight (g), individual animals No. 1-6 ([1]; 0.057 mg/kg × 6, IV once weekly, Day 63): 27 g (2×) and 26 g (2×) and 29 g and 24 g
- Body Weight (g), individual animals No. 1-6 ([1]; 0.057 mg/kg × 6, IV once weekly, Day 67): 27 g (2×) and 28 g (2×) and 26 g and 25 g
- Body Weight (g), individual animals No. 1-6 ([1]; 0.057 mg/kg × 6, IV once weekly, Day 70): 27 g and 28 g (2×) and 25 g (2×) and 26 g
- Body Weight (g), Mean ([1]; 0.057 mg/kg × 6, IV once weekly, Day 74, group mean): 26.7 g
- Body Weight (g), individual animals No. 1-6 ([1]; 0.057 mg/kg × 6, IV once weekly, Day 74): 27 g (2×) and 29 g and 24 g and 25 g and 28 g
- Body Weight (g), individual animals No. 1-6 ([1]; 0.057 mg/kg × 6, IV once weekly, Day 77): 28 g and 29 g and 23 g and 27 g (2×) and 24 g
- Body Weight (g), individual mice ([1]; 0.057 mg/kg × 6 IV once weekly, Day 1): 23 g (2×) and 22 g (2×) and 24 g and 21 g
- Body Weight (g), Mean ([1]; 0.057 mg/kg × 6 IV once weekly, Day 1, mean of 6 mice): 22.5 g
- Body Weight (g), individual mice ([1]; 0.057 mg/kg × 6 IV once weekly, Day 5): 24 g (3×) and 22 g (3×)
- Body Weight (g), Mean ([1]; 0.057 mg/kg × 6 IV once weekly, Day 5, mean of 6 mice): 23.0 g
- Body Weight (g), individual mice ([1]; 0.057 mg/kg × 6 IV once weekly, Day 8): 26 g and 23 g (2×) and 24 g (2×) and 25 g
- Body Weight (g), Mean ([1]; 0.057 mg/kg × 6 IV once weekly, Day 8, mean of 6 mice): 24.2 g
- Body Weight (g), individual mice ([1]; 0.057 mg/kg × 6 IV once weekly, Day 12): 26 g and 24 g (2×) and 25 g (3×)
- Body Weight (g), individual mice ([1]; 0.057 mg/kg × 6 IV once weekly, Day 15): 27 g and 25 g (4×) and 26 g
- Body Weight (g), individual mice ([1]; 0.057 mg/kg × 6 IV once weekly, Day 19): 26 g and 24 g and 25 g (4×)
- Body Weight (g), Mean ([1]; 0.057 mg/kg × 6 IV once weekly, Day 19, mean of 6 mice): 25.0 g
- Body Weight (g), individual mice ([1]; 0.057 mg/kg × 6 IV once weekly, Day 22): 27 g and 25 g (2×) and 24 g and 26 g (2×)
- Body Weight (g), individual mice ([1]; 0.057 mg/kg × 6 IV once weekly, Day 26): 27 g and 25 g (2×) and 24 g (2×) and 26 g
- maximum percent TGI ([2]; 0.191 mg/kg IP weekly, Day 18): 55%
- anti-tumor activity (in words) ([2]; 0.191 mg/kg IP weekly, over the course of the study): moderate anti-tumor activity
- Tumor Volume (mm^3), individual animal ([2]; Day 1): 75 mm^3 and 108 mm^3 and 81 mm^3 and 83 mm^3 and 99 mm^3 and 60 mm^3 and 68 mm^3 and 91 mm^3
- Tumor Volume (mm^3), Mean ([2]; Day 1): 83 mm^3
- % T/C ([2]; Day 1): 108%
- Tumor Volume (mm^3), individual animal ([2]; Day 4): 80 mm^3 (2×) and 127 mm^3 and 101 mm^3 and 88 mm^3 and 115 mm^3 and 85 mm^3 and 108 mm^3
- Tumor Volume (mm^3), Mean ([2]; Day 4): 98 mm^3
- % T/C ([2]; Day 4): 120%
- % TGI ([2]; Day 4): −20%
- Tumor Volume (mm^3), individual animal ([2]; Day 8): 94 mm^3 (2×) and 74 mm^3 (2×) and 83 mm^3 and 70 mm^3 and 82 mm^3 and 121 mm^3
- Tumor Volume (mm^3), Mean ([2]; Day 8): 87 mm^3
- % T/C ([2]; Day 8): 97%
- % TGI ([2]; Day 8): 3%
- Tumor Volume (mm^3), individual animal ([2]; Day 11): 74 mm^3 and 86 mm^3 and 89 mm^3 and 104 mm^3 and 121 mm^3 and 67 mm^3 and 77 mm^3 and 79 mm^3
- Tumor Volume (mm^3), Mean ([2]; Day 11): 87 mm^3
- % T/C ([2]; Day 11): 68%
- % TGI ([2]; Day 11): 32%
- Tumor Volume (mm^3), individual animal ([2]; Day 15): 82 mm^3 and 133 mm^3 and 137 mm^3 and 101 mm^3 and 144 mm^3 and 89 mm^3 and 172 mm^3 and 123 mm^3
- Tumor Volume (mm^3), Mean ([2]; Day 15): 123 mm^3
- % T/C ([2]; Day 15): 71%
- % TGI ([2]; Day 15): 29%
- Tumor Volume (mm^3), individual animal ([2]; Day 18): 80 mm^3 and 199 mm^3 and 246 mm^3 and 169 mm^3 and 187 mm^3 and 101 mm^3 and 281 mm^3 and 202 mm^3
- Tumor Volume (mm^3), Mean ([2]; Day 18): 183 mm^3
- % T/C ([2]; Day 18): 45%
- % TGI ([2]; Day 18): 55%
- Tumor Volume (mm^3), individual animal ([2]; Day 22): 74 mm^3 and 618 mm^3 and 530 mm^3 and 337 mm^3 and 317 mm^3 and 152 mm^3 and 621 mm^3 and 401 mm^3
- Tumor Volume (mm^3), Mean ([2]; Day 22): 381 mm^3
- % T/C ([2]; Day 22): 52%
- % TGI ([2]; Day 22): 48%
- Tumor Volume (mm^3), individual animal ([2]; Day 25): 70 mm^3 and 1163 mm^3 and 1095 mm^3 and 483 mm^3 and 525 mm^3 and 249 mm^3 and 1078 mm^3 and 535 mm^3
- Tumor Volume (mm^3), Mean ([2]; Day 25): 650* mm^3
- % T/C ([2]; Day 25): 58%
- % TGI ([2]; Day 25): 42%
- Tumor Volume (mm^3), individual animal ([2]; Day 29): 90 mm^3 and 1756 mm^3 and 1410 mm^3 and 853 mm^3 and 522 mm^3 and 431 mm^3 and 1313 mm^3 and 845 mm^3
- Tumor Volume (mm^3), Mean ([2]; Day 29): 903* mm^3
- % T/C ([2]; Day 29): 48%
- % TGI ([2]; Day 29): 52%
- Tumor Volume (mm^3), individual animal ([2]; Day 31): 173 mm^3 and 1901 mm^3 and 1682 mm^3 and 1172 mm^3 and 657 mm^3 and 550 mm^3 and 1595 mm^3 and 1044 mm^3
- Tumor Volume (mm^3), Mean ([2]; Day 31): 1097* mm^3
- % T/C ([2]; Day 31): 48%
- % TGI ([2]; Day 31): 52%
- Tumor Volume (mm^3), individual animal ([2]; Day 36): 126 mm^3 and 3047 mm^3 and 2480 mm^3 and 2090 mm^3 and 759 mm^3 and 1032 mm^3 and 2538 mm^3 and 1318 mm^3
- Tumor Volume (mm^3), Mean ([2]; Day 36): 1674 mm^3
- Tumor Volume (mm^3), individual animal ([2]; Day 39): 56 mm^3 and 4380 mm^3 and 2713 mm^3 and 2836 mm^3 and 841 mm^3 and 1304 mm^3 and 3040 mm^3 and 1339 mm^3
- Tumor Volume (mm^3), Mean ([2]; Day 39): 2064 mm^3
